Reference: the NIST ThermoML archive (doi:10.1016/j.jct.2013.12.031)
Numbers after ± are expanded uncertainties.

Details: Crystal; visual observation

In the case of `Cc1ccc(S(=O)(=O)[O-])cc1.c1ccc2sc[nH+]c2c1` [benzothiazolium p-toluenesulfonate], the Normal melting temperature is reported as 120.00 ± 0.5 °C.
